Measurements published in the Kinase Knowledgebase extract (Sharma et al. 2016).

Test system: MAPK14 (sprague-dawley rat)
Assay: IL-1 beta-induced P38 Phosphorylation
Conditions: astrocyte

IC50	Structure (SMILES)
500 µM	CC(=O)N[C@@H](CS)C(=O)O
500 µM	CC(C)(C)/[N+]([O-])=C/c1ccccc1
